Measured values: PMC10794144, “A novel antibiotic class targeting the lipopolysaccharide transporter” (Nature, 2024)

Key:
S. aureus ATCC 29213 = experiment: organism not typed; conditions: for RO7223280 MIC 100%: S. aureus ATCC 29213, read at 100%
Description: MIC determinations were performed using the broth microdilution method and in line with CLSI guidelines M07 and M100 (refs. [37],[38]). Bacterial inocula were prepared by diluting a 0.5 McFarland suspension in CAMHB or lysogeny broth (LB) specifically for A. baylyi isolates. […] MIC values of all of the tested antibiotics were read as the lowest compound concentration inhibiting bacterial growth by naked eye or beyond which the OD600 ceased to decrease.

Abl kinase = biological target: T1, Abl kinase (Homo sapiens, UniProt P00519); experiment: Off-target screening (CEREP); format: biochemical; conditions: read-out: percent inhibition
T1 construct: purchased Eurofins CEREP SA
Description: (§1) Supplementary Table 1 │ Off-target activity screening f or MCP compou nds […]
(§2) The assays given in the table above were conducted at Eurofins CEREP S A (Celle-Lévescault, France) and were run as single point measurements in duplicates in the presence of 10 µ M of the test compound and reported as percent inhibition of the radioligand signal or control enzymatic activity. n.d., not

Acetylcholinesterase = biological target: T2, Acetylcholinesterase (Homo sapiens, UniProt P22303); experiment: Off-target screening (CEREP); format: biochemical; conditions: read-out: percent inhibition
T2 construct: purchased Eurofins CEREP SA
T2 sequence (P22303 32-614): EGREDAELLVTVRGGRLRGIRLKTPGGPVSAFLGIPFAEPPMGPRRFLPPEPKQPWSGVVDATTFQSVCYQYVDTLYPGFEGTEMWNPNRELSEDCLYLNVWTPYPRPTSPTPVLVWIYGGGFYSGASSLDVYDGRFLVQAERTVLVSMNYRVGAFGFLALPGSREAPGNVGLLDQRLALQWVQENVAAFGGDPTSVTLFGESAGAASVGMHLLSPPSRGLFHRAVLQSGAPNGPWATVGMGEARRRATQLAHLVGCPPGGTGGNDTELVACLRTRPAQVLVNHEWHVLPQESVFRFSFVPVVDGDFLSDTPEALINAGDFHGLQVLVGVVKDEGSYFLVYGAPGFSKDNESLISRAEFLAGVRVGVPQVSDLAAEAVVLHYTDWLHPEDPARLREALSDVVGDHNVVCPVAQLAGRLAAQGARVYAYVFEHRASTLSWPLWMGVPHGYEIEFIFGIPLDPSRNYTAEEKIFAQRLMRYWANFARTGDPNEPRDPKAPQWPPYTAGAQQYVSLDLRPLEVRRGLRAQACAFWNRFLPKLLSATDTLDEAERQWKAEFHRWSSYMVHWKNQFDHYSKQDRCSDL
Description: as §1, §2

[1] = biological target: T3, Angiotensin converting enzyme (Homo sapiens, UniProt P12821); experiment: Off-target screening (CEREP); format: biochemical; conditions: read-out: percent inhibition
T3 construct: purchased Eurofins CEREP SA
T3 sequence (P12821 30-1306): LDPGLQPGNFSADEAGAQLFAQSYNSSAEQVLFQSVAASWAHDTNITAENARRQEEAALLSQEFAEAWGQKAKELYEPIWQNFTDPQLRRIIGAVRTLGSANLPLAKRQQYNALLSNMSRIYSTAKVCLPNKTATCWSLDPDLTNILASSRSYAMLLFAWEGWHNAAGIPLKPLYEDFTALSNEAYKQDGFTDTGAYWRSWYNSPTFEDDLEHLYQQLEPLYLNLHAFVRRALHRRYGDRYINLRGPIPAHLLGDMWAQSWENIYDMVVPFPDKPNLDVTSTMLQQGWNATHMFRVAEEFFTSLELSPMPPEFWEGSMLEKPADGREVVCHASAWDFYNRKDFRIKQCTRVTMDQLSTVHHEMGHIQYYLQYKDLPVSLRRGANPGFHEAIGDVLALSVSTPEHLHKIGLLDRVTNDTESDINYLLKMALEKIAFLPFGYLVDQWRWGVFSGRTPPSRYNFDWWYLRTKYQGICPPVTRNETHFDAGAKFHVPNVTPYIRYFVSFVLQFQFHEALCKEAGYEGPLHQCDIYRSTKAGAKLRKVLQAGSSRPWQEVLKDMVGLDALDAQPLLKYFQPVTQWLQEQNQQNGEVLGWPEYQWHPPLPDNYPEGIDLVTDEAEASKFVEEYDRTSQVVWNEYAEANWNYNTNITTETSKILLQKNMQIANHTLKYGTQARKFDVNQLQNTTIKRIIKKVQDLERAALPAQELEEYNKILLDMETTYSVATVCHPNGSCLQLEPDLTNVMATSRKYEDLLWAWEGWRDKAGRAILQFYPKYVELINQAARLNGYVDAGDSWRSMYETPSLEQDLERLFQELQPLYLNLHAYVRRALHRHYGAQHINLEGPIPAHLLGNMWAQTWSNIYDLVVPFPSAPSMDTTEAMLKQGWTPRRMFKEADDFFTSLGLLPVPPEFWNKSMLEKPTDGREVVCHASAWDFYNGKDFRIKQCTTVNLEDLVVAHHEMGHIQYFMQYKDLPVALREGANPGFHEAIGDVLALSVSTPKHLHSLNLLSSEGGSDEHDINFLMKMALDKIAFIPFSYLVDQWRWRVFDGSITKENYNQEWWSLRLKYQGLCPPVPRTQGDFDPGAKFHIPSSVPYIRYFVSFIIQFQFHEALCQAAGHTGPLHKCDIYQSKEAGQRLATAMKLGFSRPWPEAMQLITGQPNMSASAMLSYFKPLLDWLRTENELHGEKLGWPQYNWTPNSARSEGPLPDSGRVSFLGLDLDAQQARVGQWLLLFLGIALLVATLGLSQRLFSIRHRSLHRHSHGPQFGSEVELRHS
Description: as §1, §2

CDK2 = biological target: T4, CDK2 (Homo sapiens, UniProt P24941); experiment: Off-target screening (CEREP); format: biochemical; conditions: read-out: percent inhibition
T4 construct: purchased Eurofins CEREP SA
Description: as §1, §2

Cyclooxygenase 2 = biological target: T5, Cyclooxygenase 2 (Homo sapiens, UniProt P35354); experiment: Off-target screening (CEREP); format: biochemical; conditions: read-out: percent inhibition
T5 construct: purchased Eurofins CEREP SA
T5 sequence (P35354 18-604): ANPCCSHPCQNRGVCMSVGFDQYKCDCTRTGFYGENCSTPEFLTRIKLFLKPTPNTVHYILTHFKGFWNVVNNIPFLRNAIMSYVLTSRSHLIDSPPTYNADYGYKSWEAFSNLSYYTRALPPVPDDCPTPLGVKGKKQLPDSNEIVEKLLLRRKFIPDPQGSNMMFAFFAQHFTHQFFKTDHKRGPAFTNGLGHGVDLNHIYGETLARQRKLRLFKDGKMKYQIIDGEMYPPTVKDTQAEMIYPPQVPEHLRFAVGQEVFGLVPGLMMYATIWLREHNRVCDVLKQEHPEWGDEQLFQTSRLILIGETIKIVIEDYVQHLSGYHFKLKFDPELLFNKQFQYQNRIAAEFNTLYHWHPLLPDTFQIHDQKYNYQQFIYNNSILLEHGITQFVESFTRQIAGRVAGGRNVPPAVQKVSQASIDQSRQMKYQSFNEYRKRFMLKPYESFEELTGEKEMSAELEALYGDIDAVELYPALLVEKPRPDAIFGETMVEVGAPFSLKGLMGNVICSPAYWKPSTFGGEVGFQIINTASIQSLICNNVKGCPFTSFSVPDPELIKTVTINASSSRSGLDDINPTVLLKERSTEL
Description: as §1, §2

GSK-3A = biological target: T6, GSK-3A (Homo sapiens, UniProt P49840); experiment: Off-target screening (CEREP); format: biochemical; conditions: read-out: percent inhibition
T6 construct: purchased Eurofins CEREP SA
Description: as §1, §2

HIV-1 protease = experiment: Off-target screening (CEREP); format: biochemical; conditions: 10 µM, duplicates
Description: as §1, §2

Matrix metalloprotease-9 = biological target: T7, Matrix metalloprotease-9 (Homo sapiens, UniProt P14780); experiment: Off-target screening (CEREP); format: biochemical; conditions: read-out: percent inhibition
T7 construct: purchased Eurofins CEREP SA
Description: as §1, §2

Monoamine oxidase-A = biological target: T8, Monoamine oxidase-A (Homo sapiens, UniProt P21397); experiment: Off-target screening (CEREP); format: biochemical; conditions: read-out: percent inhibition
T8 construct: purchased Eurofins CEREP SA
T8 sequence (P21397 1-527): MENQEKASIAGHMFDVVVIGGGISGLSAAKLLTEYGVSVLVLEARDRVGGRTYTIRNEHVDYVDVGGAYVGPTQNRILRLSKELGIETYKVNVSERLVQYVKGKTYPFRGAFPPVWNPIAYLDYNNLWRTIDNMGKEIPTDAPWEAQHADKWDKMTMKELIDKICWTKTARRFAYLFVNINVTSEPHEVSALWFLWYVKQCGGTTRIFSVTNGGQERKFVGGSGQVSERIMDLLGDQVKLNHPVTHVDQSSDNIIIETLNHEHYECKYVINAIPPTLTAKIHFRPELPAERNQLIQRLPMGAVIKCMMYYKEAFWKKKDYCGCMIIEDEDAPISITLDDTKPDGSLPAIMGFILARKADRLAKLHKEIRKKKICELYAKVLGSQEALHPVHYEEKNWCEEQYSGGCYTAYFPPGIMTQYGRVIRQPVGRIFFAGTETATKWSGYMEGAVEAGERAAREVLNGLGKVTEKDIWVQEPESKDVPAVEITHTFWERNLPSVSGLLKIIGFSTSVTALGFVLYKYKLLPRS
Description: as §1, §2

Phosphodiesterase 3B = biological target: T9, Phosphodiesterase 3B (Homo sapiens, UniProt Q13370); experiment: Off-target screening (CEREP); format: biochemical; conditions: read-out: percent inhibition
T9 construct: purchased Eurofins CEREP SA
T9 sequence (Q13370 whole entry): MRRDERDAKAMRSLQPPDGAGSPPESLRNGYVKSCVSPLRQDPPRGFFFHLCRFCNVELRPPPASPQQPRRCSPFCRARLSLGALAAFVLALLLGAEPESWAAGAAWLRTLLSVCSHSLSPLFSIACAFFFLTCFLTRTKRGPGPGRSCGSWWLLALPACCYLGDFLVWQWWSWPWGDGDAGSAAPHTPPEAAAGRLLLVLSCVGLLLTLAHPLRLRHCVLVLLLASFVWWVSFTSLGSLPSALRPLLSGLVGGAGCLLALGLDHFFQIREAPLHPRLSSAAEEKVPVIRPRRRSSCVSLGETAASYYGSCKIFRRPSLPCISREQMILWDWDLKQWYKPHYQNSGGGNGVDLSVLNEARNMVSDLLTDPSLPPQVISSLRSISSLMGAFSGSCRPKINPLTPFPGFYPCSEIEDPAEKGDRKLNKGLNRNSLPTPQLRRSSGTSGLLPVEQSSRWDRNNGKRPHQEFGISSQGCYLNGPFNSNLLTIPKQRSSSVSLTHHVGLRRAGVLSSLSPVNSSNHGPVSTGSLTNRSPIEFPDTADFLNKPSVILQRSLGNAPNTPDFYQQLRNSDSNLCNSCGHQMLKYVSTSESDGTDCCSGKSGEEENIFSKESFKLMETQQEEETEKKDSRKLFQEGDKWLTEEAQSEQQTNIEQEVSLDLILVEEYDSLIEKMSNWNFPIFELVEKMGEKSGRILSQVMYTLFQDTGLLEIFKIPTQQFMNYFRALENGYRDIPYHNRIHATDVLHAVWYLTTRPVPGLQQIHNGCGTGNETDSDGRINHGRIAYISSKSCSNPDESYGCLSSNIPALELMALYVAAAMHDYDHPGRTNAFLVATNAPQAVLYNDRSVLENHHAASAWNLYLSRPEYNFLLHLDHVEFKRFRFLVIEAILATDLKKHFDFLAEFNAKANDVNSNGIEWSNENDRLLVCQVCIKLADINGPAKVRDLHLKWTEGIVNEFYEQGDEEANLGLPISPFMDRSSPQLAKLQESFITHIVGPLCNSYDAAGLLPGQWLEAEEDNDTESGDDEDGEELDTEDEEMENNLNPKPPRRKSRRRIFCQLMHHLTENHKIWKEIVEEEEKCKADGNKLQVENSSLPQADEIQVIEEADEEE
Description: as §1, §2

Phosphodiesterase 4D2 = biological target: T10, Phosphodiesterase 4D2 (Homo sapiens, UniProt Q08499); experiment: Off-target screening (CEREP); format: biochemical; conditions: read-out: percent inhibition
T10 construct: purchased Eurofins CEREP SA
T10 sequence (Q08499 303-809 limits assumed): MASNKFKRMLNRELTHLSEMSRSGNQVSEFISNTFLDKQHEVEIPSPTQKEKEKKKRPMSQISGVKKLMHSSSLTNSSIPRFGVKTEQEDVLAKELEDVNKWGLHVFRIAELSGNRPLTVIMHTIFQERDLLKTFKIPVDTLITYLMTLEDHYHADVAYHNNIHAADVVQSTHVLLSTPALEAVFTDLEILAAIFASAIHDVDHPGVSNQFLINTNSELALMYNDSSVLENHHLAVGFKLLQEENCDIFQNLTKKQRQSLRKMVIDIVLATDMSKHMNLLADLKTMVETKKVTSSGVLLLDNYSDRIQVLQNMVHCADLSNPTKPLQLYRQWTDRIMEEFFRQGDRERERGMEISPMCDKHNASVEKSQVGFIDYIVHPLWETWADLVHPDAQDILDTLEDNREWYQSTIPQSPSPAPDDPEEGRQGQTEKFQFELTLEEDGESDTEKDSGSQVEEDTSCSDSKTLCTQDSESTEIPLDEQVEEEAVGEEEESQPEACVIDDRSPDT
Description: as §1, §2

ZAP70 kinase = biological target: T11, ZAP70 kinase (Homo sapiens, UniProt P43403); experiment: Off-target screening (CEREP); format: biochemical; conditions: read-out: percent inhibition
T11 construct: purchased Eurofins CEREP SA
T11 sequence (P43403 1-619): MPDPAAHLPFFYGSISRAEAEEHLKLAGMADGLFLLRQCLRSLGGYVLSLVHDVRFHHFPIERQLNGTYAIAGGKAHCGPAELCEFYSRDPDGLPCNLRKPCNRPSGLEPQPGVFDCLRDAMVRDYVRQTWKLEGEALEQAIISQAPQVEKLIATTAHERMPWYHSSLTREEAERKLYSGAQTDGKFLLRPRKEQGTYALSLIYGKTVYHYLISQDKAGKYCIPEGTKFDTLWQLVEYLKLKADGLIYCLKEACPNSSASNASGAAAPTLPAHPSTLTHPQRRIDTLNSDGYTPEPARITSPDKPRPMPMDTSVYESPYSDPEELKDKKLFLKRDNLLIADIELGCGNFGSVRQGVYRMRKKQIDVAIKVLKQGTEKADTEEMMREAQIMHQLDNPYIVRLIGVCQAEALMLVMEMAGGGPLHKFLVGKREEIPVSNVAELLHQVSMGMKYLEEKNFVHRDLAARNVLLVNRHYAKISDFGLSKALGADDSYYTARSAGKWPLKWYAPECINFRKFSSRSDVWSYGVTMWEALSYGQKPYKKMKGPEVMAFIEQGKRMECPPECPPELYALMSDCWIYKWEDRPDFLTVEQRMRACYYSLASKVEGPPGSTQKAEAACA
Description: as §1, §2

Xanthine oxidase = biological target: T12, Xanthine oxidase (Bos taurus, UniProt P80457); experiment: Off-target screening (CEREP); format: biochemical, bovine; conditions: read-out: percent inhibition
T12 construct: purchased Eurofins CEREP SA
T12 sequence (P80457 whole entry): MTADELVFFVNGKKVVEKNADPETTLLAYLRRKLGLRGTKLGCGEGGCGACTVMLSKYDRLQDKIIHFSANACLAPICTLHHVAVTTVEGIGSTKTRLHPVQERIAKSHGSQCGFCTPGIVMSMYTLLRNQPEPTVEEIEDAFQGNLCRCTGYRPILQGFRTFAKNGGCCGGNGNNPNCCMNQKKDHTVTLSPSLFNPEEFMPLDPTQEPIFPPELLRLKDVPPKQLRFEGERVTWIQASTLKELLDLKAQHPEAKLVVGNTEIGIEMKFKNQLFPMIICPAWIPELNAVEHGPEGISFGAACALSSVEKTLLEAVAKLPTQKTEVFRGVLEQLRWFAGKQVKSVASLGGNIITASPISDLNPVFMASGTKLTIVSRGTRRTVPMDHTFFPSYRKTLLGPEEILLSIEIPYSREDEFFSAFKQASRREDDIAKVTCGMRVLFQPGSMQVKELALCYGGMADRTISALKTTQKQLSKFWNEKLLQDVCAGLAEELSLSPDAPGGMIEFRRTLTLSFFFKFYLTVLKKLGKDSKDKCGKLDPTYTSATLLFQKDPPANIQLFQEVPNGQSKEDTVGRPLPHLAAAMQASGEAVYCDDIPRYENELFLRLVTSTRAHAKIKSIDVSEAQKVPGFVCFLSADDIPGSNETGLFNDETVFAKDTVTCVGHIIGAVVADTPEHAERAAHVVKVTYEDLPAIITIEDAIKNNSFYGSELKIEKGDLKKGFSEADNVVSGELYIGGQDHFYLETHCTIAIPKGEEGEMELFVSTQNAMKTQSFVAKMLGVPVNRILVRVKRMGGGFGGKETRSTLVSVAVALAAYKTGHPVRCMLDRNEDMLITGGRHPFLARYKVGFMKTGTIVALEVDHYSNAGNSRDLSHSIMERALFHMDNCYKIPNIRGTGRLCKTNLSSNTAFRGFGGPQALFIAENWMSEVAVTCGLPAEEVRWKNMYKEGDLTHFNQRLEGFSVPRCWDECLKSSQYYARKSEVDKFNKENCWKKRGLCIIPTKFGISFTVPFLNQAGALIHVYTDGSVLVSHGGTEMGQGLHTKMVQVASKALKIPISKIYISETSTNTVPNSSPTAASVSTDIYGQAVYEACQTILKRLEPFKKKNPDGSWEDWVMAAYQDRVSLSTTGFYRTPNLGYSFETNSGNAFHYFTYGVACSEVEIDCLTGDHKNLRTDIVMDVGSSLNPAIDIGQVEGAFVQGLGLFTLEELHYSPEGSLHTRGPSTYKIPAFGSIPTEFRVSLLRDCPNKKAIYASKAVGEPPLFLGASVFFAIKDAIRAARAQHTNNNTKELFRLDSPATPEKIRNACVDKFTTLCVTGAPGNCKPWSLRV
Description: as §1, §2

For `CN1C(=O)[C@H](CCCCN)NC(=O)[C@H](CCCN)NCc2cccnc2Sc2cccc(-c3ccc(C(=O)O)cc3)c2CNC(=O)[C@@H]1Cc1c[nH]c2ccccc12` [zosurabalpin], which “RO7223280 MIC 100%” value (S. aureus ATCC 29213; Study LGC296813) is on record?
The value was greater than 64 µg/mL.

And the “RO7223280 MIC 100%” value (S. aureus ATCC 29213; Study LGC299544)?
Its value is greater than 64 µg/mL.

And the “RO7223280 MIC 100%” value (S. aureus ATCC 29213; Study LGC308175)?
Its value is greater than 64 µg/mL.

What about the MIC (S. aureus ATCC 29213; Staphylococcus aureus, ATCC29213) of the same molecule?
The MIC was greater than 64 µg/mL.

What about the inhibition at 10 µM (Abl kinase) of the same molecule?
Its inhibition at 10 µM is -18%.

What about the inhibition at 10 µM (Acetylcholinesterase) of the same molecule?
Its inhibition at 10 µM is 13%.

What about the inhibition at 10 µM [1] of the same molecule?
Its inhibition at 10 µM is -16%.

And the inhibition at 10 µM (CDK2)?
Its inhibition at 10 µM is 9%.

And the inhibition at 10 µM (Cyclooxygenase 2)?
Its inhibition at 10 µM is -7%.

And the inhibition at 10 µM (GSK-3A)?
The inhibition at 10 µM was -1%.

What about the percent inhibition (HIV-1 protease) of the same molecule?
The percent inhibition was 16%.

And the inhibition at 10 µM (Matrix metalloprotease-9)?
Its inhibition at 10 µM is 10%.

What about the inhibition at 10 µM (Monoamine oxidase-A) of the same molecule?
The inhibition at 10 µM was 2%.

And the inhibition at 10 µM (Phosphodiesterase 3B)?
Its inhibition at 10 µM is 2%.

And the inhibition at 10 µM (Phosphodiesterase 4D2)?
Its inhibition at 10 µM is 12%.

And the inhibition at 10 µM (ZAP70 kinase)?
The inhibition at 10 µM was 1%.

What about the inhibition at 10 µM (Xanthine oxidase) of the same molecule?
Its inhibition at 10 µM is 5%.
